Reference: ChEMBL document CHEMBL1671859, “bla(IMP-4) in different genetic contexts in Enterobacteriaceae isolates from Australia” (2008)

Legend:
Type in all cases: functional
Klebsiella oxytoca [1] = test: Antibacterial activity against Klebsiella oxytoca isolate Ko0426 harboring IncL/M plasmid and blaIMP-4-qacG2-aacA4-catB3 array by Etest method in presence of clavulanic acid
Klebsiella pneumoniae [2] = test: Antibacterial activity against Klebsiella pneumoniae Kp1239 transconjugant harboring IncL/M plasmid and blaIMP-4-qacG2-aacA4-catB3 array by Etest method in presence of clavulanic acid
Citrobacter amalonaticus [3] = test: Antibacterial activity against Citrobacter amalonaticus Ca3927 transconjugant harboring IncL/M plasmid and blaIMP-4-qacG2-aacA4-catB3 array by Etest method in presence of clavulanic acid
Escherichia coli [4] = test: Antibacterial activity against Escherichia coli isolate Ec158 harboring IncA/C plasmid and blaIMP-4-qacG2-aacA4-catB3 array by Etest method in presence of clavulanic acid
Klebsiella pneumoniae [5] = test: Antibacterial activity against Klebsiella pneumoniae isolate Kp204 harboring IncA/C plasmid and blaIMP-4-qacG2-aacA4-catB3 array by Etest method in presence of clavulanic acid
Morganella morganii [6] = test: Antibacterial activity against Morganella morganii Mm38009 transconjugant harboring IncL/M plasmid and blaIMP-4-qacG2-aacA4-catB3 array by Etest method in presence of clavulanic acid
Citrobacter youngae [7] = test: Antibacterial activity against Citrobacter youngae isolate CyB38 harboring blaIMP-4-qacG2-aacA4-catB3 array by Etest method in presence of clavulanic acid
Morganella morganii [8] = test: Antibacterial activity against Morganella morganii isolate Mm1614 harboring IncL/M plasmid and blaIMP-4-qacG2-aacA4-catB3 array by Etest method in presence of clavulanic acid
Klebsiella pneumoniae [9] = test: Antibacterial activity against Klebsiella pneumoniae isolate Kp1945 harboring IncL/M plasmid, blaIMP-4-qacG2-aacA4-catB3 and dfrA12-orfF-aadA2 arrays by Etest method in presence of clavulanic acid
Enterobacter cloacae [10] = test: Antibacterial activity against Enterobacter cloacae isolate El1573 harboring IncL/M plasmid and blaIMP-4-qacG2-aacA4-catB3 array by Etest method in presence of clavulanic acid
Citrobacter amalonaticus [11] = test: Antibacterial activity against Citrobacter amalonaticus isolate Ca1614 harboring IncL/M plasmid and blaIMP-4-qacG2-aacA4-catB3 array by Etest method in presence of clavulanic acid
Klebsiella pneumoniae [12] = test: Antibacterial activity against Klebsiella pneumoniae isolate Kp4614 in presence of clavulanic acid
Citrobacter koseri [13] = test: Antibacterial activity against Citrobacter koseri Ck211 transconjugant harboring IncA/C plasmid and blaIMP-4-qacG2-aacA4-catB3 array by Etest method in presence of clavulanic acid
Serratia marcescens [14] = test: Antibacterial activity against Serratia marcescens Sm265 transconjugant harboring IncA/C plasmid and blaIMP-4-qacG2-aacA4-catB3 array by Etest method in presence of clavulanic acid
Serratia marcescens [15] = test: Antibacterial activity against Serratia marcescens isolate Sm203 harboring IncA/C plasmid and blaIMP-4-qacG2-aacA4-catB3 array by Etest method in presence of clavulanic acid
Klebsiella oxytoca [16] = test: Antibacterial activity against Klebsiella oxytoca Ko238 transconjugant harboring IncA/C plasmid and blaIMP-4-qacG2-aacA4-catB3 array by Etest method in presence of clavulanic acid
Klebsiella oxytoca [17] = test: Antibacterial activity against Klebsiella oxytoca isolate Ko1156 harboring IncL/M plasmid and blaIMP-4-qacG2-aacA4-catB3 array by Etest method in presence of clavulanic acid
Enterobacter cloacae [18] = test: Antibacterial activity against Enterobacter cloacae isolate El3799 harboring IncL/M plasmid and blaIMP-4-qacG2-aacA4-catB3 array by Etest method in presence of clavulanic acid
Acinetobacter baumannii = test: Antibacterial activity against Acinetobacter baumannii isolate AbN450 harboring blaIMP-4-qacG2-aacA4-catB3 array by Etest method in presence of clavulanic acid
Citrobacter youngae [19] = test: Antibacterial activity against Citrobacter youngae CyB38 transconjugant harboring blaIMP-4-qacG2-aacA4-catB3 array by Etest method in presence of clavulanic acid
Citrobacter amalonaticus [20] = test: Antibacterial activity against Citrobacter amalonaticus isolate Ca38009 harboring IncL/M plasmid and blaIMP-4-qacG2-aacA4-catB3 array by Etest method in presence of clavulanic acid
Enterobacter cloacae [21] = test: Antibacterial activity against Enterobacter cloacae isolate El216 harboring IncA/C plasmid and blaIMP-4-qacG2-aacA4-catB3 array by Etest method in presence of clavulanic acid
Klebsiella pneumoniae [22] = test: Antibacterial activity against Klebsiella pneumoniae Kp38009 transconjugant harboring IncL/M plasmid and blaIMP-4-qacG2-aacA4-catB3 array by Etest method in presence of clavulanic acid
Klebsiella pneumoniae [23] = test: Antibacterial activity against Klebsiella pneumoniae Kp149 transconjugant harboring IncA/C plasmid and blaIMP-4-qacG2-aacA4-catB3 array by Etest method in presence of clavulanic acid
Klebsiella pneumoniae [24] = test: Antibacterial activity against Klebsiella pneumoniae isolate Kp266 harboring IncA/C plasmid and blaIMP-4-qacG2-aacA4-catB3 array by Etest method in presence of clavulanic acid
Serratia marcescens [25] = test: Antibacterial activity against Serratia marcescens isolate Sm265 harboring IncA/C plasmid and blaIMP-4-qacG2-aacA4-catB3 array by Etest method in presence of clavulanic acid
Klebsiella pneumoniae [26] = test: Antibacterial activity against Klebsiella pneumoniae isolate Kp7564 harboring IncL/M plasmid and blaIMP-4-qacG2-aacA4-catB3 array by Etest method in presence of clavulanic acid
Klebsiella pneumoniae [27] = test: Antibacterial activity against Klebsiella pneumoniae isolate Kp38009 harboring IncL/M plasmid and blaIMP-4-qacG2-aacA4-catB3 array by Etest method in presence of clavulanic acid
Citrobacter koseri [28] = test: Antibacterial activity against Citrobacter koseri isolate Ck211 harboring IncA/C plasmid and blaIMP-4-qacG2-aacA4-catB3 array by Etest method in presence of clavulanic acid
Escherichia coli [29] = test: Antibacterial activity against Escherichia coli isolate Ec211 harboring IncA/C plasmid and blaIMP-4-qacG2-aacA4-catB3 array by Etest method in presence of clavulanic acid
Enterobacter cloacae [30] = test: Antibacterial activity against Enterobacter cloacae isolate El3518 harboring IncL/M plasmid and blaIMP-4-qacG2-aacA4-catB3 array by Etest method in presence of clavulanic acid
Serratia marcescens [31] = test: Antibacterial activity against Serratia marcescens Sm2723 transconjugant harboring IncL/M plasmid and blaIMP-4-qacG2-aacA4-catB3 array by Etest method in presence of clavulanic acid
Morganella morganii [32] = test: Antibacterial activity against Morganella morganii isolate Mm38009 harboring IncL/M plasmid and blaIMP-4-qacG2-aacA4-catB3 array by Etest method in presence of clavulanic acid
Escherichia coli [33] = test: Antibacterial activity against Escherichia coli Ec9381 transconjugant harboring IncL/M plasmid and blaIMP-4-qacG2-aacA4-catB3 array by Etest method in presence of clavulanic acid
Escherichia coli [34] = test: Antibacterial activity against Escherichia coli Ec158 transconjugant harboring IncA/C plasmid and blaIMP-4-qacG2-aacA4-catB3 array by Etest method in presence of clavulanic acid
Enterobacter cloacae [35] = test: Antibacterial activity against Enterobacter cloacae isolate El3280 harboring IncL/M plasmid and blaIMP-4-qacG2-aacA4-catB3 array by Etest method in presence of clavulanic acid
Enterobacter cloacae [36] = test: Antibacterial activity against Enterobacter cloacae El1573 transconjugant harboring IncL/M plasmid and blaIMP-4-qacG2-aacA4-catB3 array by Etest method in presence of clavulanic acid

Measured: MIC

CC1(C)S[C@@H]2[C@H](NC(=O)[C@H](N)c3ccc(O)cc3)C(=O)N2[C@H]1C(=O)O [AMOXICILLIN]
> 16 µg/mL: Klebsiella oxytoca [1] | Klebsiella pneumoniae [2] | Citrobacter amalonaticus [3] | Escherichia coli [4] | Klebsiella pneumoniae [5] | Morganella morganii [6] | Citrobacter youngae [7] | Morganella morganii [8] | Klebsiella pneumoniae [9] | Enterobacter cloacae [10] | Citrobacter amalonaticus [11] | Klebsiella pneumoniae [12] | Citrobacter koseri [13] | Serratia marcescens [14] | Serratia marcescens [15] | Klebsiella oxytoca [16] | Klebsiella oxytoca [17] | Enterobacter cloacae [18] | Acinetobacter baumannii | Citrobacter youngae [19] | Citrobacter amalonaticus [20] | Enterobacter cloacae [21] | Klebsiella pneumoniae [22] | Klebsiella pneumoniae [23] | Klebsiella pneumoniae [24] | Serratia marcescens [25] | Klebsiella pneumoniae [26] | Klebsiella pneumoniae [27] | Citrobacter koseri [28] | Escherichia coli [29] | Enterobacter cloacae [30] | Serratia marcescens [31] | Morganella morganii [32] | Escherichia coli [33] | Escherichia coli [34] | Enterobacter cloacae [35] | Enterobacter cloacae [36]
